# Values joined by “and” are separate entries in the source; they are usually repeats but may differ in a detail not shown here. Equal entries are not always repeated. Where two headings read alike, the source gives them in different places.
# Key:
# Assay type in all cases: cell-based
# [1] = tested on: Escherichia coli (E. coli—ATCC #8739); experiment: Synergy test, microtiter plate high resolution MIC assay, M9GY medium, bacterium; conditions: for Qb: B alone where Qa = 0; for MIC: Escherichia coli, read-out: MIC of the component acting alone (QA or QB)
# Text: (§1) One measure of synergism is the industrially accepted method described by Kull, F. C.; Eisman, P. C.; Sylwestrowicz, H. D. and Mayer, R. L., in Applied Microbiology 9:538-541 (1961), using the ratio determined by the formula: Qa/QA+Qb/QB=Synergy Index(“SI”) wherein: • QA=concentration of compound A (first component) in ppm, acting alone, which produced an end point (MIC of Compound A). • Qa=concentration of compound A in ppm, in the mixture, which produced an end point. • QB=concentration of compound B (second component) in ppm, acting alone, which produced an end point (MIC of Compound B). • Qb=concentration of compound B in ppm, in the mixture, which produced an end point.
# (§2) When the sum of Qa/QA and Qb/QB is greater than one, antagonism is indicated. […] The lower the SI, the greater is the synergy shown by that particular mixture. The minimum inhibitory concentration (MIC) of a microbicide is the lowest concentration tested under a specific set of conditions that prevents the growth of the tested microorganisms.
# (§3) Synergy tests were conducted using standard microtiter plate assays with media designed for optimal growth of the test microorganism. Minimal salt medium supplemented with 0.2% glucose and 0.1% yeast extract (M9GY medium) was used for testing bacteria; Potato Dextrose Broth (PDB medium) was used for testing yeast and mold. In this method, a wide range of combinations of microbicides and other personal care raw materials was tested by conducting high resolution MIC assays in the presence of various concentrations of CMIT/MIT, MIT, or BIT. High resolution MICs were determined by adding varying amounts of microbicide to one column of a microtitre plate and doing subsequent […] dilutions using an automated liquid handling system to obtain a series of endpoints ranging from 2 ppm to 10,000 ppm active ingredient.
# (§4) The synergy of the combinations of the present invention was determined against a bacterium, Escherichia coli (E. coli—ATCC #8739), a yeast, Candida albicans (C. albicans—ATCC 10231), and a mold, Aspergillus niger (A. niger—ATCC 16404). The bacteria were used at a concentration of about 5×10^6 bacteria per mL and the yeast and mold at 5×10^5 fungi per mL. These microorganisms are representative of natural contaminants in many consumer and industrial applications. […] (yeast and mold) or 30° C. (bacteria).
# [2] = tested on: Aspergillus niger (A. niger—ATCC 16404); experiment: Synergy test, microtiter plate high resolution MIC assay, PDB medium, mold; conditions: for Qb: B alone where Qa = 0; for MIC: Aspergillus niger, read-out: MIC of the component acting alone (QA or QB)
# Text: as §1, §2, §3, §4
# [3] = tested on: Candida albicans (C. albicans—ATCC 10231); experiment: Synergy test, microtiter plate high resolution MIC assay, PDB medium, yeast; conditions: for Qb: B alone where Qa = 0
# Text: as §1, §2, §3, §4
# [4] = E. coli 8739 - M9GY (1 day), A = BIT, B = Caprylic acid
# [5] = A. niger 16404 - PDB (3 days), A = BIT, B = Caprylic acid
# [6] = C. albicans 10231 - PDB (6 days), A = BIT, B = Caprylic acid
# [7] = E. coli 8739 - M9GY (1 day), A = MIT, B = Lauric arginate
# [8] = A. niger 16404 - PDB (10 days), A = MIT, B = Lauric arginate
# [9] = C. albicans 10231 - PDB (6 days), A = MIT, B = Lauric arginate
structure (smiles),measurement,setting,value
"O=c1[nH]sc2ccccc12 [BIT, 1,2-benzisothiazolin-3-one]",MIC of the component acting alone (Qa or Qb with the other component at 0),"[1]; E. coli 8739, M9GY, 1 day",20.00 ppm
same,SI (synergy index),"[1]; E. coli 8739, M9GY, 1 day",1.00
same,MIC of the component acting alone (Qa or Qb with the other component at 0),"[1]; E. coli 8739, M9GY, 2 days",20.00 ppm
same,SI (synergy index),"[1]; E. coli 8739, M9GY, 2 days",1.00
same,SI,[1]; [4],1.00
same,Qa,"[1]; E. coli 8739 - M9GY (1 day), A = BIT, B = Caprylic acid, A alone where Qb = 0",20 ppm
same,MIC of the component acting alone (Qa or Qb with the other component at 0),"[2]; A. niger 16404, PDB, 3 days",50 ppm
same,SI (synergy index),"[2]; A. niger 16404, PDB, 3 days",1.00
same,MIC of the component acting alone (Qa or Qb with the other component at 0),"[2]; A. niger 16404, PDB, 4 days",50 ppm
same,SI (synergy index),"[2]; A. niger 16404, PDB, 4 days",1.00
same,MIC of the component acting alone (Qa or Qb with the other component at 0),"[2]; A. niger 16404, PDB, 10 days",100.00 ppm
same,SI (synergy index),"[2]; A. niger 16404, PDB, 10 days",1.00
same,SI,[2]; [5],1.00
same,Qa,"[2]; A. niger 16404 - PDB (3 days), A = BIT, B = Caprylic acid, A alone where Qb = 0",50 ppm
same,MIC of the component acting alone (Qa or Qb with the other component at 0),"[3]; C. albicans 10231, PDB, 1 day",15.00 ppm
same,SI (synergy index),"[3]; C. albicans 10231, PDB, 1 day",1.00
same,MIC of the component acting alone (Qa or Qb with the other component at 0),"[3]; C. albicans 10231, PDB, 2 days",30.00 ppm
same,SI (synergy index),"[3]; C. albicans 10231, PDB, 2 days",1.00
same,MIC of the component acting alone (Qa or Qb with the other component at 0),"[3]; C. albicans 10231, PDB, 6 days",30.00 ppm and 40.00 ppm
same,SI (synergy index),"[3]; C. albicans 10231, PDB, 6 days",1.00
same,SI,[3]; [6],1.00
same,Qa,"[3]; C. albicans 10231 - PDB (6 days), A = BIT, B = Caprylic acid, A alone where Qb = 0",20 ppm
"CCCCCCCC(=O)O [Caprylic acid, octanoic acid]",Synergy Index (SI) = Qa/QA+Qb/QB,"[1]; E. coli 8739, M9GY, 1 day",1.00
same,Synergy Index (SI) = Qa/QA+Qb/QB,"[1]; E. coli 8739, M9GY, 2 days",1.00
same,SI,[1]; [4],1.00
same,Qb,[1]; [4],8000 ppm
same,MIC,"[1]; ATCC8739, 24 h, E. coli 8739, M9GY, 1 day, 30° C.",8000 µg/mL
same,MIC,"[1]; ATCC8739, 48 h, E. coli 8739, M9GY, 2 days, 30° C.",8000 µg/mL
same,Synergy Index (SI) = Qa/QA+Qb/QB,"[2]; A. niger 16404, PDB, 3 days",1.00
same,Synergy Index (SI) = Qa/QA+Qb/QB,"[2]; A. niger 16404, PDB, 10 days",1.00
same,SI,[2]; [5],1.00
same,Qb,[2]; [5],2000 ppm
same,MIC,"[2]; ATCC16404, 72 h, A. niger 16404, PDB, 3 days, 25° C.",2000 µg/mL
same,MIC,"[2]; ATCC16404, 240 h, A. niger 16404, PDB, 10 days, 25° C.",2000 µg/mL
same,Synergy Index (SI) = Qa/QA+Qb/QB,"[3]; C. albicans 10231, PDB, 6 days",1.00
same,SI,[3]; [6],1.00
same,Qb,[3]; [6],2000 ppm
same,MIC,"[3]; Candida albicans, ATCC10231, 144 h, C. albicans 10231, PDB, 6 days, 25° C., read-out: MIC of the component acting alone (QA or QB)",2000 µg/mL
"CCCCCCCCCCCC(=O)N[C@@H](CCCNC(=N)N)C(=O)OCC.Cl [Lauric arginate, N-α-lauoryl-L-arginine ethyl ester monohydrochloride]",MIC of the component acting alone (Qa or Qb with the other component at 0),"[1]; E. coli 8739, M9GY, 1 day",300 ppm
same,SI (synergy index),"[1]; E. coli 8739, M9GY, 1 day",1.00
same,Synergy Index (SI) = Qa/QA+Qb/QB,"[1]; E. coli 8739, M9GY, 1 day",1.00
same,MIC of the component acting alone (QA or QB),"[1]; E. coli 8739, M9GY, 1 day, 30° C.",200 ppm
same,SI,[1]; [7],1.00
same,Qb,[1]; [7],300 ppm
same,MIC of the component acting alone (Qa or Qb with the other component at 0),"[2]; A. niger 16404, PDB, 3 days",2000 ppm
same,SI (synergy index),"[2]; A. niger 16404, PDB, 3 days",1.00
same,Synergy Index (SI) = Qa/QA+Qb/QB,"[2]; A. niger 16404, PDB, 4 days",1.00
same,MIC of the component acting alone (QA or QB),"[2]; A. niger 16404, PDB, 4 days, 25° C.",2000 ppm
same,SI,[2]; [8],1.00
same,Qb,[2]; [8],2000 ppm
same,Synergy Index (SI) = Qa/QA+Qb/QB,"[3]; C. albicans 10231, PDB, 1 day",1.00
same,MIC of the component acting alone (QA or QB),"[3]; C. albicans 10231, PDB, 1 day, 25° C.",800 ppm
same,MIC of the component acting alone (Qa or Qb with the other component at 0),"[3]; C. albicans 10231, PDB, 6 days",200 ppm
same,SI (synergy index),"[3]; C. albicans 10231, PDB, 6 days",1.00
same,SI,[3]; [9],1.00
same,Qb,[3]; [9],800 ppm

# — patent publication US8778982B2, “Synergistic microbicidal compositions” (Rohm and Haas Company, priority 2007, dated 2014)
